Active and inactive are the calls of the source.

Consider 3 molecules from ChEMBL document CHEMBL1201862, “PubChem BioAssay data set” (2004).

In assay [1] the target is ALK tyrosine kinase receptor (Homo sapiens, UniProt Q9UM73). Type of assay: functional.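 Also: ALK tested as one member of a kinase panel screen.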
The target in assay [2] is Serine/threonine-protein kinase D3 (Homo sapiens, UniProt O94806). The assay is classed as functional.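 Also: determined within a kinase panel screen, with PRKCN as the panel member.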
Assay [3] concerns the target Tyrosine-protein kinase Lck (Homo sapiens, UniProt P06239). The assay is classed as functional.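 Also: lck was assayed as one member of a kinase panel.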
Assay [4] has as its target Death-associated protein kinase 3 (Homo sapiens, UniProt O43293). The assay is classed as functional.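 Also: measured as one member of a kinome-wide profiling panel.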
The next assay concerns the target Activin receptor type-1 (Homo sapiens, UniProt Q04771). Briefly: Navigating the Kinome. Panel member name: ACVR1. The assay is classed as functional.
The target of assay [5] is Mitogen-activated protein kinase 8 (Homo sapiens, UniProt P45983). The assay is classed as functional.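 Also: value comes from one member of a kinome-wide kinase profiling panel.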
In assay [6] the target is Serine/threonine-protein kinase pim-1 (Homo sapiens, UniProt P11309). The assay is classed as functional.
For assay [7], the target named is Tyrosine-protein kinase BTK (Homo sapiens, UniProt Q06187). The assay is classed as functional.
The target of assay [8] is Serine/threonine-protein kinase PAK 4 (Homo sapiens, UniProt O96013). Type of assay: functional.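 Also: value obtained within a kinome profiling panel in which PAK4 was one of the panel members.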
In assay [9] the target is Fibroblast growth factor receptor 1 (Homo sapiens, UniProt P11362). Type of assay: functional.
The target in assay [10] is Casein kinase I isoform alpha (Homo sapiens, UniProt P48729). Type of assay: functional.
The target in assay [11] is Tyrosine-protein kinase JAK3 (Homo sapiens, UniProt P52333). Type of assay: functional.
Assay [12] concerns the target Serine/threonine-protein kinase N2 (Homo sapiens, UniProt Q16513). Type of assay: functional.
For assay [13], the target named is Serine/threonine-protein kinase TAO1 (Homo sapiens, UniProt Q7L7X3). The assay is classed as functional.
Assay [14] concerns the target Glycogen synthase kinase-3 alpha (Homo sapiens, UniProt P49840). Type of assay: functional.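 Also: GSK3A result taken from a broad kinome-wide kinase panel.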
For assay [15], the target named is Tyrosine-protein kinase ABL1 (Homo sapiens, UniProt P00519). The assay is classed as functional.
The target of assay [16] is G protein-coupled receptor kinase 5 (Homo sapiens, UniProt P34947). The experiment in a line: Navigating the Kinome. Panel member name: GPRK5. The assay is classed as functional.
Another assay has as its target Focal adhesion kinase 1 (Homo sapiens, UniProt Q05397). Type of assay: functional.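 Also: measured as one member of a kinome panel.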
Assay [17] has as its target Tyrosine-protein kinase Fyn (Homo sapiens, UniProt P06241). The assay is classed as functional.
The target of assay [18] is Cyclin-dependent kinase 8 (Homo sapiens, UniProt P49336). The experiment in a line: Navigating the Kinome. Panel member name: CDK8. The assay is classed as functional.
Assay [19] deals with Mitogen-activated protein kinase kinase kinase kinase 4 (Homo sapiens, UniProt O95819). Type of assay: functional.
Assay [20] addresses Calcium/calmodulin-dependent protein kinase type II subunit alpha (Homo sapiens, UniProt Q9UQM7). The experiment in a line: Navigating the Kinome. Panel member name: CAMK2A. Type of assay: functional.
Another assay has as its system CHO-K1. Briefly: Counterscreen for antagonists of the orexin 1 receptor (OX1R; HCRTR1): Homogeneous time resolved fluorescence (HTRF)-based cell-based dose response assay to identify antagonists of the parental CHO-K1 cell line. [Related pubchem assays (depositor defined):AID434989, AID435008, AID463079, AID485270, AID492963, AID492964, AID492965, AID493232, AID504699, AID504701]. Type of assay: functional. As to conditions: Cricetulus griseus.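 Also: potency for inhibition of ATP-stimulated IP1 production as antagonists.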

Assay [21] in a line: Counterscreen for antagonists of the orexin 1 receptor (OX1R; HCRTR1): Fluorescence-based cell-based high throughput dose response assay to identify antagonists of the parental CHO cell line. [Related pubchem assays (depositor defined):AID434989, AID435008, AID463079, AID485270, AID492963, AID492964, AID492965, AID493232, AID504699, AID504701]. The assay is classed as functional. Background: Counterscreens check selectivity or assay interference.

For assay [22], the target named is Neurotensin receptor type 1 (Homo sapiens, UniProt P30989). Type of assay: functional.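 Also: Image-based confirmatory dose-response assay measuring agonist activity at NTR1; NTR1-expressing U2OS osteosarcoma cells imaged for beta-arrestin GFP spot formation; agonist potency where compounds increase beta-arrestin recruitment.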
Assay [23] deals with T1, Orexin/Hypocretin receptor type 1 (Homo sapiens, UniProt O43613). The experiment in a line: Homogeneous Time Resolved Fluorescence (HTRF)-based cell-based high throughput dose response assay for antagonists of the orexin 1 receptor (OX1R; HCRTR1). [Related pubchem assays (depositor defined):AID434989, AID435008, AID463079, AID485270, AID492963, AID492964, AID492965, AID493232, AID504717, AID504718]. Type of assay: functional.

In assay [24] the target is T1, Orexin/Hypocretin receptor type 1. Briefly: Fluorescence-based cell-based high throughput dose response assay for antagonists of the orexin 1 receptor (OX1R; HCRTR1). [Related pubchem assays (depositor defined):AID434989, AID435008, AID463079, AID485270, AID492963, AID492964, AID492965, AID493232, AID504717, AID504718]. Type of assay: functional.
In assay [25] the target is T2, Microphthalmia-associated transcription factor (Homo sapiens, UniProt O75030).
T2 sequence (O75030 whole entry): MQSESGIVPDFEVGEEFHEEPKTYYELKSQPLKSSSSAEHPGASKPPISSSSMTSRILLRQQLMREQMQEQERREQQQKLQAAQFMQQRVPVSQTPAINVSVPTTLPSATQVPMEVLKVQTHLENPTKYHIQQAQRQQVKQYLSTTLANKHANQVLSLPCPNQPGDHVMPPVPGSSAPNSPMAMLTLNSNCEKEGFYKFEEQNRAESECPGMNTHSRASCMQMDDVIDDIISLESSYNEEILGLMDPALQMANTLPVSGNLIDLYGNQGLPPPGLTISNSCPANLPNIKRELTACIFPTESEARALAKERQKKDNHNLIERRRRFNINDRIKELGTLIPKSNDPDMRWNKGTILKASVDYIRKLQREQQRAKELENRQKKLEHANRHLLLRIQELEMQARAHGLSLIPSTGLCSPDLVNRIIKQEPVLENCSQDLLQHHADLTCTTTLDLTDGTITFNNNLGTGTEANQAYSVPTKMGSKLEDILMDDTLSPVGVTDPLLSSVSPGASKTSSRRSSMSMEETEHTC
The experiment in a line: TRPM1 promoter luciferase signal decrease, dose response, MITF inhibitor project, cell-based, SK-MEL-5, cherry-picked, set 3 (AID 493073).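 Also: SK-MEL-5 melanoma cells with luciferase driven by the MITF target TRPM1 promoter.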 Type of assay: functional.

For assay [26], the target named is T3, Orexin receptor type 2 (Homo sapiens, UniProt O43614). The experiment in a line: Counterscreen assay for antagonists of the orexin 1 receptor (OX1R; HCRTR1): Fluorescence-based cell-based dose response assay for antagonists of the orexin 2 receptor (OX2R; HCRTR2), run by assay provider. Type of assay: functional.
Assay [27] concerns the target T3, Orexin receptor type 2. The experiment in a line: Counterscreen assay for antagonists of the orexin 1 receptor (OX1R; HCRTR1): Homogeneous Time Resolved Fluorescence (HTRF)-based cell-based dose response assay for antagonists of the orexin 2 receptor (OX2R; HCRTR2), run by assay provider. The assay is classed as functional.
Assay [28] can be described thus: A549 cell cytotoxicity, dose response, cytotoxicity control, plate reader, cherry-pick, antagonist series (AID 743412). Type of assay: functional, cell-based.
The nature of assay [29]: HepG2 cell cytotoxicity, dose response, cytotoxicity control, plate reader, cherry-pick, antagonist series (AID 743416). The assay is classed as functional, cell-based.
Assay [30] in a line: LGR2 antagonists, dose response, cell-based, HEK293, CRE-luciferase reporter, cherry pick, set 2 (AID 743343).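 Also: transfected cells were stimulated with diluted bursicon conditioned medium after compound addition.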 Type of assay: functional. In general terms: Reporter assays use an easily measured gene product as a stand-in for the process of interest.
Assay [31] is described as follows: MC4R antagonists, dose response, counter-screen for LGR2 antagonist project, cell-based, plate reader, cherry pick (AID 743444).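 Also: transfected HEK 293 cells stimulated with alpha-MSH peptide; potency of inhibitors of the alpha-MSH evoked signal.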 The assay is classed as functional.
Assay [32] in a line: HEK293 cell cytotoxicity, dose response, cytotoxicity control, plate reader, cherry-picked samples (AID 743446). The assay is classed as functional, cell-based.
Assay [33] has as its target Sphingosine 1-phosphate receptor 1 (Homo sapiens, UniProt P21453). Briefly: Late-stage fluorescence-based dose-response cell-based counterscreen assay to identify agonists of the Sphingosine 1-Phosphate Receptor 4 (S1P4): Sphingosine 1-Phosphate Receptor 1 (S1P1) agonist assay Set 2. The assay is classed as functional.
Assay [34] addresses Sphingosine 1-phosphate receptor 5 (Homo sapiens, UniProt Q9H228). Briefly: S1P5 receptor agonists, human, late-stage follow-up, counter-screen for S1P4 agonist project, cell-based, fluorescence, set 2 (AID 504867). The assay is classed as functional.
Assay [35] addresses Sphingosine 1-phosphate receptor 3 (Homo sapiens, UniProt Q99500). The experiment in a line: Late-stage fluorescence-based dose-response cell-based counterscreen assay to identify agonists of the Sphingosine 1-Phosphate Receptor 4 (S1P4): Sphingosine 1-Phosphate Receptor 3 (S1P3) agonist assay Set 2. Type of assay: functional.
Assay [36] concerns the target Sphingosine 1-phosphate receptor 2 (Homo sapiens, UniProt O95136). The experiment in a line: S1P2 receptor agonists, human, late-stage follow-up, counter-screen for S1P4 agonist project, cell-based, fluorescence, set 2 (AID 504873). Type of assay: functional.

T1 sequence (O43613 whole entry): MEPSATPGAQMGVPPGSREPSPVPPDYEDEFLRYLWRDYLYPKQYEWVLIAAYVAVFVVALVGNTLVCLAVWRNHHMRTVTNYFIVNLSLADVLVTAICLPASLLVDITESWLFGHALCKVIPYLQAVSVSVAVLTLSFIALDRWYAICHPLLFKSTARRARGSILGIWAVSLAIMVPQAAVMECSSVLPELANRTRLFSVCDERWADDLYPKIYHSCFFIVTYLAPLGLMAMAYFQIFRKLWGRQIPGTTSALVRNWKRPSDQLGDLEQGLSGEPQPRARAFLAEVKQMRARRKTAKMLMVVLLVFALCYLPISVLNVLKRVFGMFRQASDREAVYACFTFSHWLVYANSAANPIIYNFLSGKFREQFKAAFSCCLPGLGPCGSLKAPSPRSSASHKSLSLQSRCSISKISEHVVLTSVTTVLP
T3 sequence (O43614 whole entry): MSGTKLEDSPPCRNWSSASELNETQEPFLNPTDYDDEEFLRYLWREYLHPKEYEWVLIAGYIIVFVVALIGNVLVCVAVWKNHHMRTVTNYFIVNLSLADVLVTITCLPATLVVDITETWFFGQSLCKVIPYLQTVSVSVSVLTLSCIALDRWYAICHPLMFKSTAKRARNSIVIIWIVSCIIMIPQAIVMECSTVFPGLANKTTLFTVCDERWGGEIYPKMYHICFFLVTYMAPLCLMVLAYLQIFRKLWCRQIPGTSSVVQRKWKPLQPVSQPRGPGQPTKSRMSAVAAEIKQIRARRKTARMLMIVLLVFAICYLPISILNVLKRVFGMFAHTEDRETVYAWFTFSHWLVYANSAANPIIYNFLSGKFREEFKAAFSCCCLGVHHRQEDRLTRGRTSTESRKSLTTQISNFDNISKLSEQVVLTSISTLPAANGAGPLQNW
Chain of Sphingosine 1-phosphate receptor 5 (Q9H228 whole entry): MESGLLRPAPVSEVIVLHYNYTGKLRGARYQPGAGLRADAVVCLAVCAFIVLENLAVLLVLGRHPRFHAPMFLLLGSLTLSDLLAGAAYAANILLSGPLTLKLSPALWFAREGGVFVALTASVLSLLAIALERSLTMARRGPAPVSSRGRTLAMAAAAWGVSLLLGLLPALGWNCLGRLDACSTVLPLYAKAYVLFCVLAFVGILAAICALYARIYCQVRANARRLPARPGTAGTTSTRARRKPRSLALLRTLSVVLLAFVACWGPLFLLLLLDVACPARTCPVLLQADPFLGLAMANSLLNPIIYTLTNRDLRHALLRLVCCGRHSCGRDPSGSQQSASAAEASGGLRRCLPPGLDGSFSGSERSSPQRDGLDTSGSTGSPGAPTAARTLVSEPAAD
Chain of ALK tyrosine kinase receptor (Q9UM73 whole entry): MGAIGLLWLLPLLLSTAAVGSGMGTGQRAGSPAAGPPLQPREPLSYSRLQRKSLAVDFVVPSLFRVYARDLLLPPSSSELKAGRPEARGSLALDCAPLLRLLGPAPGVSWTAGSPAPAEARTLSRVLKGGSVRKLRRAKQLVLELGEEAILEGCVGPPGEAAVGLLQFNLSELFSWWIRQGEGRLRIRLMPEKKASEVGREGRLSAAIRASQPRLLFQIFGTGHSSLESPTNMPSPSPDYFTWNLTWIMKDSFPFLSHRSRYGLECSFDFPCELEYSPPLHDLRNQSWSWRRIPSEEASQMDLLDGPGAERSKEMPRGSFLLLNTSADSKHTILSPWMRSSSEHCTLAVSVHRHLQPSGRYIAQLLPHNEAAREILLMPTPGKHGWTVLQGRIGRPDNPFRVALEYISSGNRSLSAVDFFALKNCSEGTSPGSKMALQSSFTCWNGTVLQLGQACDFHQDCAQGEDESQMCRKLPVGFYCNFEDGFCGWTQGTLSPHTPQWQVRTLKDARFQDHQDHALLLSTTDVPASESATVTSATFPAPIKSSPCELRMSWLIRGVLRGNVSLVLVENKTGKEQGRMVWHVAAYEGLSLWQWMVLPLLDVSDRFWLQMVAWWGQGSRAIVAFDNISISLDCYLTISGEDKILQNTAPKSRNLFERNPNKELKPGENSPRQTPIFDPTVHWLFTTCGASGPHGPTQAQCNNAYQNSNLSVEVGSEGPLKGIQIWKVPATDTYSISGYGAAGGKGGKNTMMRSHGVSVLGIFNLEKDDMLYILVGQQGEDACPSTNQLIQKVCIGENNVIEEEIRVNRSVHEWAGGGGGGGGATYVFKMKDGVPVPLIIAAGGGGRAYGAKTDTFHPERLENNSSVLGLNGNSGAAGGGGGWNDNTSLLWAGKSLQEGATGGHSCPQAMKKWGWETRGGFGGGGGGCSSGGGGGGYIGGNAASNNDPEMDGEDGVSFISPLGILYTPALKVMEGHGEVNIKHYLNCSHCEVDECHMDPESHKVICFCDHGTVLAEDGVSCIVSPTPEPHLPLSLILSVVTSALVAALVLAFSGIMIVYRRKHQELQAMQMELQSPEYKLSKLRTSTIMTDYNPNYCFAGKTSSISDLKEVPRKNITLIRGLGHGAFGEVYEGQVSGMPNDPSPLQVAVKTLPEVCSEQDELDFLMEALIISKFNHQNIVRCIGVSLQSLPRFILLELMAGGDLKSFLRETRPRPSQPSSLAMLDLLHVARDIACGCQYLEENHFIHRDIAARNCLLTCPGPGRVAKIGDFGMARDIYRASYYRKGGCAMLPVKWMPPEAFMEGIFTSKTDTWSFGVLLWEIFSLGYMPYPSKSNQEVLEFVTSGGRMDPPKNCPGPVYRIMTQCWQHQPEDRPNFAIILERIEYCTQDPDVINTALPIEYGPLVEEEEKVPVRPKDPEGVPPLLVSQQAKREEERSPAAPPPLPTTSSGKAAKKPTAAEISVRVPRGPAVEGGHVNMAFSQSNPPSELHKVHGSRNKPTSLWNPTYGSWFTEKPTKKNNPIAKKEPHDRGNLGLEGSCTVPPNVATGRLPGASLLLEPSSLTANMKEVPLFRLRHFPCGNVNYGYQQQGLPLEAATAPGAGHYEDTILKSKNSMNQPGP
Chain of Activin receptor type-1 (Q04771 whole entry): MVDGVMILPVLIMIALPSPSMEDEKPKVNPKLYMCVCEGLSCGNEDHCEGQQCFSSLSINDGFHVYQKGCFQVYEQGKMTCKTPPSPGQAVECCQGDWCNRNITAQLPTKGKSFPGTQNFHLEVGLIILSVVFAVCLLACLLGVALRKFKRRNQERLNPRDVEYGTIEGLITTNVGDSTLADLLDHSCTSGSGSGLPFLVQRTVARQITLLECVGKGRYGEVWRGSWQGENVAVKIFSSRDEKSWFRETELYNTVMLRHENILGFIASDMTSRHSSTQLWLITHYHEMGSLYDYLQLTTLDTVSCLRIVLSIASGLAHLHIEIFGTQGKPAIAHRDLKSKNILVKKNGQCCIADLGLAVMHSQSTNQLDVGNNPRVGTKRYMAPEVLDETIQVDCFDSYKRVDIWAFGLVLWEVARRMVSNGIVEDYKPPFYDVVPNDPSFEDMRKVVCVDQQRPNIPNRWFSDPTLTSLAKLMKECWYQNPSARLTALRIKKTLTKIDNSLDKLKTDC
Chain of Tyrosine-protein kinase BTK (Q06187 whole entry): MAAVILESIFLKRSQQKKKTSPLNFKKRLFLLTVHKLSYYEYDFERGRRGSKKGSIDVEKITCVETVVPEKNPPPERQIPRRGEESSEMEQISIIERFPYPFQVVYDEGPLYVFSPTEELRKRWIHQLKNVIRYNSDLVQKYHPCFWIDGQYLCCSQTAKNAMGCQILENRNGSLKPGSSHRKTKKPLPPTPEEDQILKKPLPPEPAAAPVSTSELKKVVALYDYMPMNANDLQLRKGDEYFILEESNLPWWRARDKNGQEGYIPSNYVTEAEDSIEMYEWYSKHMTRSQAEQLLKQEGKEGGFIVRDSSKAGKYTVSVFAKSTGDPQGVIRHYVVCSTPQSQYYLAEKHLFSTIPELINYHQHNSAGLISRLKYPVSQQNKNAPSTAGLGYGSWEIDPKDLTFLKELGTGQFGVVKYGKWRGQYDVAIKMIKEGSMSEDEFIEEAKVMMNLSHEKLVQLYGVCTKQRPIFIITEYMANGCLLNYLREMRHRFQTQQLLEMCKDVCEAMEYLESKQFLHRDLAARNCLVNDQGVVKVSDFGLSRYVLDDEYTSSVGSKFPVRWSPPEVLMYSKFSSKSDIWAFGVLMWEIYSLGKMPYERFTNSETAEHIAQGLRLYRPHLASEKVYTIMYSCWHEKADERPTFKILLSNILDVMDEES
Chain of Tyrosine-protein kinase Fyn (P06241 whole entry): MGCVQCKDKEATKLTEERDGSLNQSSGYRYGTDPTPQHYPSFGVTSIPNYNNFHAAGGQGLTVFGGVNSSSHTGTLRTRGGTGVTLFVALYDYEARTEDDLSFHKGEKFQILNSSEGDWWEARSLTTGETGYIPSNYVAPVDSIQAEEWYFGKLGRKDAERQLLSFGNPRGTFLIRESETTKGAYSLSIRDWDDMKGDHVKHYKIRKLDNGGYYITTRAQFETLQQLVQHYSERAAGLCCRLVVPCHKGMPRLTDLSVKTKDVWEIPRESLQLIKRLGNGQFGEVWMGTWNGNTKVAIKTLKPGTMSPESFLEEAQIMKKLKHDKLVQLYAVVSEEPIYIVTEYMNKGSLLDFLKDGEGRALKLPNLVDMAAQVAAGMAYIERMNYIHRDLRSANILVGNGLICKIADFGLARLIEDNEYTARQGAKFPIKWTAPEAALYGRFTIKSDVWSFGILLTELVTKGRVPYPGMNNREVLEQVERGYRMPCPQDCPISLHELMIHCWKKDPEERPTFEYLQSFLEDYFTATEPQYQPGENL
Chain of Casein kinase I isoform alpha (P48729 whole entry, canonical isoform): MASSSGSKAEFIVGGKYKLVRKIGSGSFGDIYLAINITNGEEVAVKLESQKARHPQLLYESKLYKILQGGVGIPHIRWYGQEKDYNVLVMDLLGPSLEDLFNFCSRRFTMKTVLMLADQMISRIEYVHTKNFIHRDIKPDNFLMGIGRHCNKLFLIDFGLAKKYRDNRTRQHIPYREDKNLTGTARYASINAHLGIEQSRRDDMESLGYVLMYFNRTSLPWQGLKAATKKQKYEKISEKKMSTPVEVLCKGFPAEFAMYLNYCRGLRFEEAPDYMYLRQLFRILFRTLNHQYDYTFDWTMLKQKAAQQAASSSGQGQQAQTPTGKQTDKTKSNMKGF

Turning to `Cc1cc(=O)[nH]c2[nH]nc(-c3cccc(C(F)(F)F)c3)c12`, the Ki in assay [1] was > 6.31 µM (inactive); in [2] it was > 3.98 µM (inactive); in [3], > 6.31 µM (inactive); in assay [4], > 5.01 µM (inactive); at Activin receptor type-1, > 3.98 µM (inactive); in [5], > 5.01 µM (inactive). Also, the Ki in [6] is > 6.31 µM (inactive); in assay [7], > 6.31 µM (inactive); in [8], > 5.01 µM (inactive); in [9], > 3.98 µM (inactive); in [10], > 3.98 µM (inactive); in assay [11] it was > 5.01 µM (inactive). Moreover, the Ki was > 5.01 µM (inactive) in assay [12]; > 6.31 µM (inactive) in assay [13]; > 3.98 µM (inactive) in [14]; > 3.98 µM (inactive) in assay [15]; > 3.98 µM (inactive) in assay [16]; > 6.31 µM (inactive) at Focal adhesion kinase 1. The Ki was > 6.31 µM (inactive) in assay [17], > 3.98 µM (inactive) in assay [18], > 5.01 µM (inactive) in [19] and > 7.94 µM (inactive) in [20].
For `CN(C)S(=O)(=O)c1ccc(-c2csc(N/N=C/c3ccco3)n2)cc1`, the IC50 was > 66.2 µM (inactive) in the assay with CHO-K1; > 49.8 µM (inactive) in assay [21]; 7.29 µM (active) in assay [23]; > 49.8 µM (inactive) in [24]; > 88.8 µM (inactive) at Orexin receptor type 2 [26]; > 50 µM (inactive) at Orexin receptor type 2 [27]. For the same molecule, the EC50 in assay [22] was 8.51 µM (active). Besides, the AC50 is 3.9 µM (active) in assay [25]; 40.7 µM (active) in assay [28]; 5.32 µM (active) in assay [29]; 7.23 µM (active) in [30]; 7.48 µM (active) in assay [31]; 11 µM (active) in assay [32].
In the case of `C/N=C1/S/C(=C/c2cc(C)n(-c3ccc(Cl)cc3F)c2C)C(=O)N1C`, the EC50 was 3.01 µM (active) in assay [33], 0.0336 µM (active) in assay [34], > 25 µM (inactive) in [35] and > 25 µM (inactive) in [36].

The term Ki denotes a dissociation constant, usually derived from enzyme kinetics or from competition with a known ligand. Usually IC50 stands for the point on the concentration scale where inhibition reaches its midpoint. The term EC50 denotes the midpoint of the concentration-response curve. By AC50 is commonly meant the concentration giving half of the maximal activity seen.
